Results from patent publication US10174016B2 (BAYER AKTIENGESELLSCHAFT, priority 2014, dated 2019).
Where two headings read alike, the source gives them in different places.

Legend:
human P2X3 receptor = human P2X3 receptor (Homo sapiens (Human), UniProt P56373); assay: Intracellular calcium measurement (FLIPR, Fluo-4) of antagonist activity at human P2X3 receptors; format: cell-based; conditions: read-out: hP2X3 IC50
Description: (§1) Intracellular Calcium Measurement to Assess Antagonist Activity at Human P2X3 and Human P2X2/3 Receptors
(§2) A fluorescent imaging plate reader (FLEX/FLIPR station; Molecular Devices) was used to monitor intracellular calcium levels using the calcium-chelating dye Fluo-4 (Molecular Probes). […] Cells expressing purinergic receptors P2X3 (human) or P2X2/3 (human) were plated at a density of 15,000 cells/well in collagen-coated 384-well plates approximately 20 hours before beginning the assay. […] The test compound was added in a volume of 5 μl and allowed to incubate for 30 min at 37° C. The final assay DMSO concentration is 1%. The agonist, α,β-Me-ATP, was added in a volume of 20 μl at a concentration representing the EC80 value. The fluorescence was measured for an interval of 90 sec at 2 sec intervals and analyzed based on the increase in peak relative fluorescence units (RFU) compared to the basal fluorescence. Peak fluorescence was used to determine the response to agonist obtained at each concentration of test compound by the following equation: % Response=100*(RFU(test compound)−RFU(control)/RFU(DMSO)−RFU(control))
(§3) The Examples were tested in triplicates per plate and mean values were plotted in Excel XLFit to determine IC50 values at the human P2X3 and human P2X2/3 receptors, percentage of maximal inhibition and the Hill coefficients.

human P2X2/3 receptor = human P2X2/3 receptor (Homo sapiens (Human), UniProt P56373+Q9UBL9); assay: Intracellular calcium measurement (FLIPR, Fluo-4) of antagonist activity at human P2X2/3 receptors; format: cell-based
Description: as §1, §2, §3

[1] = human P2X3, FLIPR calcium assay, agonist α,β-Me-ATP
[2] = human P2X2/3, FLIPR calcium assay, agonist α,β-Me-ATP, read-out: hP2X2/3 IC50

human P2X3 receptor, sequence (P56373 whole entry): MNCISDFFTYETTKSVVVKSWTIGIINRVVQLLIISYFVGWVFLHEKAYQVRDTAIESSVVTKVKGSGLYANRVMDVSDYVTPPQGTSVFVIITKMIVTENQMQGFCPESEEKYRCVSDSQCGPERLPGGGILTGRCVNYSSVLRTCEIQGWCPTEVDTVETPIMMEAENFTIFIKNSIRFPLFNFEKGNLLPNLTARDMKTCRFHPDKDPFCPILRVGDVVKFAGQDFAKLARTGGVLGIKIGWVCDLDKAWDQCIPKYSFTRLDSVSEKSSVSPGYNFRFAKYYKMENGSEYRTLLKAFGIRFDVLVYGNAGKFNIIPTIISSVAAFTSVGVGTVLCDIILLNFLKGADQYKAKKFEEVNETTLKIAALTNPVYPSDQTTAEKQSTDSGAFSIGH
human P2X2/3 receptor, sequence (P56373 whole entry): as above
human P2X2/3 receptor, sequence (Q9UBL9 whole entry): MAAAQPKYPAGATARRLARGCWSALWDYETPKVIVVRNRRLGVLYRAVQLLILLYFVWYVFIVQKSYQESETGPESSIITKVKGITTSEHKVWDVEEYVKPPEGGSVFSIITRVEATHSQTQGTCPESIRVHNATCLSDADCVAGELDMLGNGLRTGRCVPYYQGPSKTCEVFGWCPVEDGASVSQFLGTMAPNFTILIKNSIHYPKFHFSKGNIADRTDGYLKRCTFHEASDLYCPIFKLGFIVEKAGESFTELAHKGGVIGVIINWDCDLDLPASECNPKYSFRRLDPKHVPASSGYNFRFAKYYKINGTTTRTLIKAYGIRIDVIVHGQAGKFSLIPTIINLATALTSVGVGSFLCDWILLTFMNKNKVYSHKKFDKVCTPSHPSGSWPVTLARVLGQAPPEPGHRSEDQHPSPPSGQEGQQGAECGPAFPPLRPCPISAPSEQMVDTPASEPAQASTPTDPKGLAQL

SMILES	IC50 (human P2X3 receptor; [1]) [nM]	IC50 (human P2X2/3 receptor; [2]) [nM]	IC50 (human P2X3 receptor) [nM]	IC50 (human P2X2/3 receptor; hP2X2/3 IC50 (nM)) [nM]
Cc1cnc(-c2cc(O[C@@H]3CCOC3)cc(C(=O)NC(C)c3ncc(F)cc3Cl)c2)s1 (stereo partly drawn) [Example 13, N-[1-(3-chloro-5-fluoropyridin-2-yl)ethyl]-3-(5-methyl-1,3-thiazol-2-yl)-5-[(3R)-tetrahydrofuran-3-yloxy]benzamide]	21	1100		
Cc1cnc(-c2cc(O[C@@H]3CCOC3)cc(C(=O)NC(C)c3ncc(Cl)cc3F)c2)s1 (stereo partly drawn) [Example 14, N-[1-(5-chloro-3-fluoropyridin-2-yl)ethyl]-3-(5-methyl-1,3-thiazol-2-yl)-5-[(3R)-tetrahydrofuran-3-yloxy]benzamide]	8	88		
Cc1cnc(-c2cc(O[C@@H]3CCOC3)cc(C(=O)N[C@H](C)c3ccc(Cl)cn3)c2)s1 [Example 15, N-[(1R)-1-(5-chloropyridin-2-yl)ethyl]-3-(5-methyl-1,3-thiazol-2-yl)-5-[(3R)-tetrahydrofuran-3-yloxy]benzamide]	6	147		
Cc1ccc(CNC(=O)c2cc(O[C@@H]3CCOC3)cc(-c3ncc(C)s3)c2)nn1 [Example 17, N-[(6-methylpyridazin-3-yl)methyl]-3-(5-methyl-1,3-thiazol-2-yl)-5-[(3R)-tetrahydrofuran-3-yloxy]benzamide]	35	1010		
Cc1ccc([C@@H](C)NC(=O)c2cc(O[C@@H]3CCOC3)cc(-c3ncc(C)s3)c2)nn1 [Example 18, N-[(1R)-1-(6-methylpyridazin-3-yl)ethyl]-3-(5-methyl-1,3-thiazol-2-yl)-5-[(3R)-tetrahydrofuran-3-yloxy]benzamide]	34	427		
Cc1cnc(-c2cc(O[C@@H]3CCOC3)cc(C(=O)N[C@H](C)c3ccc(C(F)(F)F)nn3)c2)s1 [Example 19, 3-(5-Methyl-1,3-thiazol-2-yl)-5-[(3R)-tetrahydrofuran-3-yloxy]-N-{(1R)-1-[6-(trifluoromethyl)pyridazin-3-yl]ethyl}benzamide]	19	749		
Cc1cnc(-c2cc(O[C@@H]3CCOC3)cc(C(=O)N[C@H](C)c3nnc(C)s3)c2)s1 [Example 20, N-[(1R)-1-(5-methyl-1,3,4-thiadiazol-2-yl)ethyl]-3-(5-methyl-1,3-thiazol-2-yl)-5-[(3R)-tetrahydrofuran-3-yloxy]benzamide]	35	486		
Cc1cnc(-c2cc(O[C@@H]3CCOC3)cc(C(=O)NCc3ccc(C(F)(F)F)nn3)c2)s1 [Example 21, 3-(5-Methyl-1,3-thiazol-2-yl)-5-[(3R)-tetrahydrofuran-3-yloxy]-N-{[6-(trifluoromethyl)pyridazin-3-yl]methyl}benzamide]	71	445		
CC[C@@H](NC(=O)c1cc(O[C@@H]2CCOC2)cc(-c2ncc(C)s2)c1)c1cnc(C(F)(F)F)nc1 [Example 22, 3-(5-Methyl-1,3-thiazol-2-yl)-5-[(3R)-tetrahydrofuran-3-yloxy]-N-{(1R)-1-[2-(trifluoromethyl)pyrimidin-5-yl]propyl}benzamide]	132	987		
Cc1ncc([C@@H](C)NC(=O)c2cc(O[C@@H]3CCOC3)cc(-c3ncc(C)s3)c2)cn1 [Example 23, N-[(1R)-1-(2-Methylpyrimidin-5-yl)ethyl]-3-(5-methyl-1,3-thiazol-2-yl)-5-[(3R)-tetrahydrofuran-3-yloxy]benzamide]			30	1110
Cc1ccc([C@@H](C)NC(=O)c2cc(O[C@@H]3CCOC3)cc(-c3ncc(C)s3)c2)cn1 [Example 24, N-[(1R)-1-(6-Methylpyridin-3-yl)ethyl]-3-(5-methyl-1,3-thiazol-2-yl)-5-[(3R)-tetrahydrofuran-3-yloxy]benzamide]	36	332		
Cc1ccc([C@@H](C)NC(=O)c2cc(O[C@H]3CCOC3)cc(-c3ncc(C)s3)c2)nn1 [Example 25, N-[(1R)-1-(6-Methylpyridazin-3-yl)ethyl]-3-(5-methyl-1,3-thiazol-2-yl)-5-[(3S)-tetrahydrofuran-3-yloxy]benzamide]	39	975		
Cc1cnc(-c2cc(O[C@H]3CCOC3)cc(C(=O)N[C@H](C)c3ccc(Cl)cn3)c2)s1 [Example 27, N-[(1R)-1-(5-Chloropyridin-2-yl)ethyl]-3-(5-methyl-1,3-thiazol-2-yl)-5-[(3S)-tetrahydrofuran-3-yloxy]benzamide]	25	280		
Cc1ccc([C@@H](C)NC(=O)c2cc(O[C@H]3CCOC3)cc(-c3ncc(C)s3)c2)nc1 [Example 28, N-[(1R)-1-(5-Methylpyridin-2-yl)ethyl]-3-(5-methyl-1,3-thiazol-2-yl)-5-[(3S)-tetrahydrofuran-3-yloxy]benzamide]	48	121		
Cc1ccc([C@@H](C)NC(=O)c2cc(O[C@H]3CCOC3)cc(-c3ncc(C)s3)c2)cn1 [Example 30, N-[(1R)-1-(6-methylpyridin-3-yl)ethyl]-3-(5-methyl-1,3-thiazol-2-yl)-5-[(3S)-tetrahydrofuran-3-yloxy]benzamide]	38	485		
C#CCOc1cc(C(=O)NCc2ccc(C)nn2)cc(-c2ncc(C)s2)c1 [Example 31, N-[(6-Methylpyridazin-3-yl)methyl]-3-(5-methyl-1,3-thiazol-2-yl)-5-(prop-2-yn-1-yloxy)benzamide]	173	≥ 10000		
C#CCOc1cc(C(=O)N[C@H](C)c2ccc(C)nc2)cc(-c2ncc(C)s2)c1 [Example 33, N-[(1R)-1-(6-Methylpyridin-3-yl)ethyl]-3-(5-methyl-1,3-thiazol-2-yl)-5-(prop-2-yn-1-yloxy)benzamide]	29	912		
C#CCOc1cc(C(=O)N[C@H](C)c2cnc(C)cn2)cc(-c2ncc(C)s2)c1 [Example 34, N-[(1R)-1-(5-Methylpyrazin-2-yl)ethyl]-3-(5-methyl-1,3-thiazol-2-yl)-5-(prop-2-yn-1-yloxy)benzamide]	111	2120		
C#CCOc1cc(C(=O)NCc2cnc(C)cn2)cc(-c2ncc(C)s2)c1 [Example 35, N-[(5-Methylpyrazin-2-yl)methyl]-3-(5-methyl-1,3-thiazol-2-yl)-5-(prop-2-yn-1-yloxy)benzamide]	460	≥ 10000		
C#CCOc1cc(C(=O)N[C@H](C)c2cnc(C(F)(F)F)nc2)cc(-c2ncc(C)s2)c1 [Example 36, 3-(5-Methyl-1,3-thiazol-2-yl)-5-(prop-2-yn-1-yloxy)-N-{(1R)-1-[2-(trifluoromethyl)pyrimidin-5-yl]ethyl}benzamide]	14	306		
C#CCOc1cc(C(=O)N[C@H](C)c2ccc(C(F)(F)F)nn2)cc(-c2ncc(C)s2)c1 [Example 38, 3-(5-Methyl-1,3-thiazol-2-yl)-5-(prop-2-yn-1-yloxy)-N-[(1R)-1-[6-(trifluoromethyl)pyridazin-3-yl]ethyl]benzamide]	55	1140		
C#CCOc1cc(C(=O)N[C@H](C)c2cnc(C)nc2)cc(-c2ncc(C)s2)c1 [Example 39, N-[(1R)-1-(2-Methylpyrimidin-5-yl)ethyl]-3-(5-methyl-1,3-thiazol-2-yl)-5-(prop-2-yn-1-yloxy)benzamide]	81	1650		
CC#CCOc1cc(C(=O)N[C@H](C)c2cnc(C(F)(F)F)nc2)cc(-c2ncc(C)s2)c1 [Example 40, 3-(But-2-yn-1-yloxy)-5-(5-methyl-1,3-thiazol-2-yl)-N-[(1R)-1-[2-(trifluoromethyl)pyrimidin-5-yl]ethyl]benzamide]	16	383		
CC#CCOc1cc(C(=O)N[C@H](C)c2nnc(C)s2)cc(-c2ncc(C)s2)c1 [Example 41, 3-(But-2-yn-1-yloxy)-N-[(1R)-1-(5-methyl-1,3,4-thiadiazol-2-yl)ethyl]-5-(5-methyl-1,3-thiazol-2-yl)benzamide]	130	1590		
Cc1ncc([C@@H](C)NC(=O)c2cc(OC3COC3)cc(-c3ncc(C)s3)c2)cn1 [Example 43, N-[(1R)-1-(2-Methylpyrimidin-5-yl)ethyl]-3-(5-methyl-1,3-thiazol-2-yl)-5-(oxetan-3-yloxy)benzamide]	50	2690		
Cc1cnc(-c2cc(OC3COC3)cc(C(=O)NC(C)c3ncc(Cl)cc3F)c2)s1 (centres unmarked) [Example 44, N-[1-(5-Chloro-3-fluoropyridin-2-yl)ethyl]-3-(5-methyl-1,3-thiazol-2-yl)-5-(oxetan-3-yloxy)benzamide]	11	370		
Cc1ccc(CNC(=O)c2cc(OC3COC3)cc(-c3ncc(C)s3)c2)nn1 [Example 45, N-[(6-Methylpyridazin-3-yl)methyl]-3-(5-methyl-1,3-thiazol-2-yl)-5-(oxetan-3-yloxy)benzamide]	212	1510		
Cc1cnc(-c2cc(OC3COC3)cc(C(=O)N[C@H](C)c3ccc(Cl)cn3)c2)s1 [Example 46, N-[(1R)-1-(5-Chloropyridin-2-yl)ethyl]-3-(5-methyl-1,3-thiazol-2-yl)-5-(oxetan-3-yloxy)benzamide]	10	389		
